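Compound exposure: 48 hours, 5 concentrations, 96-well plates. Here, GI50 denotes the concentration required for 50% inhibition of growth. The concentration for full growth arrest is given as TGI.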
Experiments:
Assay in all cases: inhibition of tumour cell growth, NCI panel, 48 h
HCT-15 colon = system: HCT-15 colon
SK-MEL-5 melanoma = system: SK-MEL-5 melanoma
RPMI-8226 leukemia = system: RPMI-8226 leukemia
M14 melanoma = system: M14 melanoma
KM12 colon = system: KM12 colon
A549 NSCLC = system: A549 NSCLC
HOP-62 NSCLC = system: HOP-62 NSCLC
ACHN renal = system: ACHN renal
OVCAR-5 ovarian = system: OVCAR-5 ovarian
OVCAR-8 ovarian = system: OVCAR-8 ovarian
SF-268 CNS = system: SF-268 CNS
LOX IMVI melanoma = system: LOX IMVI melanoma
K-562 leukemia = system: K-562 leukemia
COLO 205 colon = system: COLO 205 colon
UO-31 renal = system: UO-31 renal
TK-10 renal = system: TK-10 renal
SK-MEL-2 melanoma = system: SK-MEL-2 melanoma
HCT-116 colon = system: HCT-116 colon
HS 578T breast = system: HS 578T breast
SK-MEL-28 melanoma = system: SK-MEL-28 melanoma
SNB-75 CNS = system: SNB-75 CNS
OVCAR-4 ovarian = system: OVCAR-4 ovarian
NCI/ADR-RES ovarian = system: NCI/ADR-RES ovarian
MOLT-4 leukemia = system: MOLT-4 leukemia
MCF7 breast = system: MCF7 breast
MALME-3M melanoma = system: MALME-3M melanoma
PC-3 prostate = system: PC-3 prostate
MDA-MB-435 = system: MDA-MB-435
CCRF-CEM leukemia = system: CCRF-CEM leukemia
NCI-H460 lung = system: NCI-H460 lung
SK-OV-3 ovarian = system: SK-OV-3 ovarian
T-47D breast = system: T-47D breast
NCI-H226 lung = system: NCI-H226 lung
UACC-257 melanoma = system: UACC-257 melanoma
HOP-92 NSCLC = system: HOP-92 NSCLC
SNB-19 CNS = system: SNB-19 CNS
A498 renal = system: A498 renal
HT29 colon = system: HT29 colon
SW-620 colon = system: SW-620 colon
SF-539 CNS = system: SF-539 CNS
HCC-2998 colon = system: HCC-2998 colon
BT-549 breast = system: BT-549 breast
UACC-62 melanoma = system: UACC-62 melanoma
U251 CNS = system: U251 CNS
SR leukemia = system: SR leukemia
MDA-MB-231 breast = system: MDA-MB-231 breast
EKVX NSCLC = system: EKVX NSCLC
DU-145 prostate = system: DU-145 prostate
SF-295 CNS = system: SF-295 CNS
HL-60(TB) leukemia = system: HL-60(TB) leukemia
786-0 renal = system: 786-0 renal
IGROV1 ovarian = system: IGROV1 ovarian
NCI-H522 lung = system: NCI-H522 lung
SN12C renal = system: SN12C renal
NCI-H23 lung = system: NCI-H23 lung
CAKI-1 renal = system: CAKI-1 renal
RXF 393 renal = system: RXF 393 renal

`CN(C)CCNC(=O)c1ccc(-c2nc3ccc4[nH]ncc4c3c3c2COCC3)cc1` was tested, and the GI50 (HCT-15 colon) was 10800 nM, the TGI (HCT-15 colon) was over 100000 nM and the GI50 (SK-MEL-5 melanoma) was 2270 nM. For the same compound, the TGI (SK-MEL-5 melanoma) was 6210 nM, the GI50 (RPMI-8226 leukemia) was 2170 nM and the TGI (RPMI-8226 leukemia) was 7310 nM. It also gave a GI50 (M14 melanoma) of 1370 nM, a TGI (M14 melanoma) of 3270 nM and a GI50 (KM12 colon) of 955 nM. For the same compound, the TGI (KM12 colon) was 5260 nM, the GI50 (A549 NSCLC) was 3180 nM and the TGI (A549 NSCLC) was over 100000 nM. The GI50 (HOP-62 NSCLC) was 1100 nM, the TGI (HOP-62 NSCLC) was 4070 nM and the GI50 (ACHN renal) was 2850 nM. For the same compound, the TGI (ACHN renal) was 21700 nM, the GI50 (OVCAR-5 ovarian) was 3010 nM and the TGI (OVCAR-5 ovarian) was 28200 nM. For the same compound, the GI50 (OVCAR-8 ovarian) was 1230 nM, the TGI (OVCAR-8 ovarian) was 11100 nM and the GI50 (SF-268 CNS) was 292 nM. For the same compound, the TGI (SF-268 CNS) was 1820 nM, the GI50 (LOX IMVI melanoma) was 465 nM and the TGI (LOX IMVI melanoma) was 1850 nM. For the same compound, the GI50 (K-562 leukemia) was 740 nM, the TGI (K-562 leukemia) was over 100000 nM and the GI50 (COLO 205 colon) was 480 nM. The TGI (COLO 205 colon) was 2050 nM, the GI50 (UO-31 renal) was 6750 nM and the TGI (UO-31 renal) was 62400 nM. It also gave a GI50 (TK-10 renal) of 1450 nM, a TGI (TK-10 renal) of 7130 nM and a GI50 (SK-MEL-2 melanoma) of 360 nM. For the same compound, the TGI (SK-MEL-2 melanoma) was 1120 nM, the GI50 (HCT-116 colon) was 367 nM and the TGI (HCT-116 colon) was 11300 nM. The GI50 (HS 578T breast) was 523 nM, the TGI (HS 578T breast) was 3580 nM and the GI50 (SK-MEL-28 melanoma) was 1280 nM. For the same compound, the TGI (SK-MEL-28 melanoma) was 3940 nM, the GI50 (SNB-75 CNS) was 382 nM and the TGI (SNB-75 CNS) was 1460 nM. For the same compound, the GI50 (OVCAR-4 ovarian) was 1850 nM, the TGI (OVCAR-4 ovarian) was 8910 nM and the GI50 (NCI/ADR-RES ovarian) was 24100 nM. For the same compound, the TGI (NCI/ADR-RES ovarian) was over 100000 nM, the GI50 (MOLT-4 leukemia) was 604 nM and the TGI (MOLT-4 leukemia) was 5210 nM. The GI50 (MCF7 breast) was 293 nM, the TGI (MCF7 breast) was 7660 nM and the GI50 (MALME-3M melanoma) was 786 nM. The TGI (MALME-3M melanoma) was 2690 nM, the GI50 (PC-3 prostate) was 1120 nM and the TGI (PC-3 prostate) was 8120 nM. The GI50 (MDA-MB-435) was 677 nM, the TGI (MDA-MB-435) was 2150 nM and the GI50 (CCRF-CEM leukemia) was 374 nM. For the same compound, the TGI (CCRF-CEM leukemia) was 50400 nM, the GI50 (NCI-H460 lung) was 2200 nM and the TGI (NCI-H460 lung) was 5460 nM. For the same compound, the GI50 (SK-OV-3 ovarian) was 1060 nM, the TGI (SK-OV-3 ovarian) was 28500 nM and the GI50 (T-47D breast) was 750 nM. It also gave a TGI (T-47D breast) of over 100000 nM, a GI50 (NCI-H226 lung) of 1240 nM and a TGI (NCI-H226 lung) of 7140 nM. The GI50 (UACC-257 melanoma) was 2410 nM, the TGI (UACC-257 melanoma) was 8170 nM and the GI50 (HOP-92 NSCLC) was 1000 nM. The TGI (HOP-92 NSCLC) was 5860 nM, the GI50 (SNB-19 CNS) was 587 nM and the TGI (SNB-19 CNS) was 7470 nM. It also gave a GI50 (A498 renal) of 1190 nM, a TGI (A498 renal) of 2810 nM and a GI50 (HT29 colon) of 2050 nM. For the same compound, the TGI (HT29 colon) was 6990 nM, the GI50 (SW-620 colon) was 527 nM and the TGI (SW-620 colon) was 4880 nM. For the same compound, the GI50 (SF-539 CNS) was 512 nM, the TGI (SF-539 CNS) was 2210 nM and the GI50 (HCC-2998 colon) was 1080 nM. The TGI (HCC-2998 colon) was 3240 nM, the GI50 (BT-549 breast) was 624 nM and the TGI (BT-549 breast) was 2370 nM. It also gave a GI50 (UACC-62 melanoma) of 767 nM, a TGI (UACC-62 melanoma) of 2570 nM and a GI50 (U251 CNS) of 659 nM. For the same compound, the TGI (U251 CNS) was 16300 nM, the GI50 (SR leukemia) was 301 nM and the TGI (SR leukemia) was 2250 nM. For the same compound, the GI50 (MDA-MB-231 breast) was 791 nM, the TGI (MDA-MB-231 breast) was 5000 nM and the GI50 (EKVX NSCLC) was 2170 nM. For the same compound, the TGI (EKVX NSCLC) was 12800 nM, the GI50 (DU-145 prostate) was 1490 nM and the TGI (DU-145 prostate) was 8680 nM. It also gave a GI50 (SF-295 CNS) of 3270 nM, a TGI (SF-295 CNS) of 16000 nM and a GI50 (HL-60(TB) leukemia) of 1300 nM. For the same compound, the TGI (HL-60(TB) leukemia) was 4880 nM, the GI50 (786-0 renal) was 2050 nM and the TGI (786-0 renal) was 9430 nM. The GI50 (IGROV1 ovarian) was 1280 nM, the TGI (IGROV1 ovarian) was 9200 nM and the GI50 (NCI-H522 lung) was 188 nM. For the same compound, the TGI (NCI-H522 lung) was 372 nM, the GI50 (SN12C renal) was 1000 nM and the TGI (SN12C renal) was 5400 nM. For the same compound, the GI50 (NCI-H23 lung) was 1240 nM, the TGI (NCI-H23 lung) was 3310 nM and the GI50 (CAKI-1 renal) was 1200 nM. For the same compound, the TGI (CAKI-1 renal) was 12700 nM, the GI50 (RXF 393 renal) was 239 nM and the TGI (RXF 393 renal) was 1040 nM.

Reference: PubChem BioAssay (NCI)
